Measured values from patent US5350743A, “Bisphosphonic acid derivatives, as bone resorption inhibitors” (Kaken Pharmaceutical Co., Ltd., priority 1991, dated 1994).

Experiments:
[1] = tested on: bone resorption activities by PTH; assay type: in vivo, rat (Wister male); conditions: sc, 10 mg/kg; for Serum calcium value, 1 day value (b) / Serum increased calcium value [(b)-(a)]: 24 h
Text: Now, the test method with respect to the antihypercalcemic activities of the compounds of the present invention by using rats having the thyroid gland and the pala thyroid gland removed, and the results will be described.
Wister male rats of 7 weeks old (150-170 g) were anesthetized with nenbutal, and the thyroid gland and the pala thyroid gland were surgically removed by the method disclosed by Russel R. G. et al, Calcif. Tissue, Res., 183-196 (1970) and by Muehlbauer R. C. et al, Mineral Electrolyte Metab., 5 296-300 (1981). After the operation, the rats were fed on normal food for three days, and on the fourth day, the blood was sampled, and the serum calcium value was measured by an atomic absorption method, whereby rats having the serum calcium value lowered to a level of from 5 to 7 mg/de were selected.
These rats were divided into groups so that each group consisted of five rats. A compound of the present invention was dissolved in a 0.5% CMC aqueous solution or physiological saline and adjusted for administration at a dose of 10 mg/kg. Such a solution was subcutaneously administered at a dose of 2 ml/kg once a day for three days. To a control group, a 0.5% CMC aqueous solution or physiological saline was administered. Next day, 0.2 ml of the blood was sampled, and the serum calcium value was measured in the same manner as described above (this value was designated as 0 day value (a)).
At the same time, an osmotic pump (2001 Model, manufactured by Alza Co.) having parathyroid hormone (PTH) (50 μg/0.2 ml physiological saline) sealed in, was subcutaneously embedded on the back of each rat, and 24 hours later, the blood was sampled from the aorta abdominalis, whereupon the serum calcium value was measured (this value was designated as one day value (b)).
From the obtained results, the serum increased calcium value was calculated by the following formula: [formula]

[2] = toxicity, LD50, subcutaneous injection to mice; conditions: mouse, in vivo, sc, ddy mice male five weeks old (22-27 g)
Procedure: LD50 of the compounds of Examples 2, 14, 16, 18, 33, 34 and 58 was at least 100 mg/kg when subcutaneously injected to ddy mice (male) of five weeks old (22-27 g).

## NCCC(O)(P(=O)(O)O)P(=O)(O)O [APD, reference compound]
[1]
  Serum calcium value, 0 day value (a): 60.2 ± 8.32 µg/mL
  Serum calcium value, 1 day value (b): 83.6 ± 3.13 µg/mL
  Serum increased calcium value [(b)-(a)]: 23.4 ± 6.50 µg/mL

## O=P(O)(O)C(N1CCC2(CCCCC2)CC1)P(=O)(O)O [Example 2, 3-azaspiro[5.5]undecan-3-yl-methylene bisphosphonic acid]
[1]
  Serum calcium value, 0 day value (a): 47.2 ± 2.22 µg/mL
  Serum calcium value, 1 day value (b): 109.0 ± 8.47 µg/mL
  Serum increased calcium value [(b)-(a)]: 61.8 ± 7.38 µg/mL
[2]
  LD50: ≥ 100 mg/kg

## O=P(O)(O)C(N1CCC2(CC1)CC2(F)F)P(=O)(O)O [Example 4, 1,1-difluoro-6-azaspiro[2.5]octan-6-yl-methylene bisphosphonic acid]
[1]
  Serum calcium value, 0 day value (a): 51.4 ± 7.23 µg/mL
  Serum calcium value, 1 day value (b): 128.7 ± 3.31 µg/mL
  Serum increased calcium value [(b)-(a)]: 77.3 ± 6.37 µg/mL

## O=P(O)(O)C(N1CCC2(CCCC2)CC1)P(=O)(O)O [Example 6, 8-azaspiro[4.5]decan-8-yl-methylene bisphosphonic acid]
[1]
  Serum calcium value, 0 day value (a): 40.3 ± 3.61 µg/mL
  Serum calcium value, 1 day value (b): 90.6 ± 5.30 µg/mL
  Serum increased calcium value [(b)-(a)]: 50.3 ± 6.25 µg/mL

## O=P(O)(O)C(N1CCCC12CCCCC2)P(=O)(O)O [Example 8, 1-azaspiro[4.5]decan-1-yl-methylene bisphosphonic acid]
[1]
  Serum calcium value, 0 day value (a): 47.1 ± 4.17 µg/mL
  Serum calcium value, 1 day value (b): 109.8 ± 2.07 µg/mL
  Serum increased calcium value [(b)-(a)]: 62.7 ± 4.27 µg/mL

## O=P(O)(O)C(N1CCCCC12CCCCC2)P(=O)(O)O [Example 10, 1-azaspiro[5.5]undecan-1-yl-methylene bisphosphonic acid]
[1]
  Serum calcium value, 0 day value (a): 45.5 ± 5.54 µg/mL
  Serum calcium value, 1 day value (b): 108.8 ± 6.80 µg/mL
  Serum increased calcium value [(b)-(a)]: 63.3 ± 1.91 µg/mL

## O=P(O)(O)C(N1CCCC2(CCCCC2)C1)P(=O)(O)O [Example 12, 2-azaspiro[5.5]undecan-2-yl-methylene bisphosphonic acid]
[1]
  Serum calcium value, 0 day value (a): 53.9 ± 7.82 µg/mL
  Serum calcium value, 1 day value (b): 138.9 ± 4.29 µg/mL
  Serum increased calcium value [(b)-(a)]: 85.0 ± 6.27 µg/mL

## C=C1CCN(C(P(=O)(O)O)P(=O)(O)O)CC1 [Example 14, 4-methylidenepiperidinomethylene bisphosphonic acid]
[1]
  Serum calcium value, 0 day value (a): 60.99 ± 2.67 µg/mL
  Serum calcium value, 1 day value (b): 68.34 ± 2.94 µg/mL
  Serum increased calcium value [(b)-(a)]: 7.35 ± 2.65 µg/mL
[2]
  LD50: ≥ 100 mg/kg

## CCCCCC=C1CCN(C(P(=O)(O)O)P(=O)(O)O)CC1 [Example 16, 4-hexylidenepiperidinomethylene bisphosphonic acid]
[1]
  Serum calcium value, 0 day value (a): 52.12 ± 1.86 µg/mL
  Serum calcium value, 1 day value (b): 53.30 ± 4.89 µg/mL
  Serum increased calcium value [(b)-(a)]: 1.18 ± 3.70 µg/mL
[2]
  LD50: ≥ 100 mg/kg

## CC=C1CCN(C(P(=O)(O)O)P(=O)(O)O)CC1 [Example 18, 4-ethylidenepiperidinomethylene bisphosphonic acid]
[1]
  Serum calcium value, 0 day value (a): 61.34 ± 7.49 µg/mL
  Serum calcium value, 1 day value (b): 66.05 ± 6.68 µg/mL
  Serum increased calcium value [(b)-(a)]: 4.72 ± 4.05 µg/mL
[2]
  LD50: ≥ 100 mg/kg

## CCC=C1CCN(C(P(=O)(O)O)P(=O)(O)O)CC1 [Example 20]
[1]
  Serum calcium value, 0 day value (a): 63.02 ± 3.75 µg/mL
  Serum calcium value, 1 day value (b): 71.73 ± 6.32 µg/mL
  Serum increased calcium value [(b)-(a)]: 8.71 ± 2.72 µg/mL

## CCCC=C1CCN(C(P(=O)(OCC)OCC)P(=O)(OCC)OCC)CC1 [Example 21, 4-Butylidenepiperidinomethylene bisphosphonic acid ethyl ester]
[1]
  Serum calcium value, 0 day value (a): 60.87 ± 5.61 µg/mL
  Serum calcium value, 1 day value (b): 65.92 ± 7.91 µg/mL
  Serum increased calcium value [(b)-(a)]: 5.05 ± 3.19 µg/mL

## CCOP(=O)(OCC)C(N1CCC(Cc2ccccc2)CC1)P(=O)(OCC)OCC [Example 27, 4-Benzylpiperidinomethylene bisphosphonic acid ethyl ester]
[1]
  Serum calcium value, 0 day value (a): 66.2 ± 3.13 µg/mL
  Serum calcium value, 1 day value (b): 79.5 ± 2.77 µg/mL
  Serum increased calcium value [(b)-(a)]: 13.3 ± 1.62 µg/mL

## CCOP(=O)(OCC)C(N1CCC(C(N)=O)(N2CCCCC2)CC1)P(=O)(OCC)OCC [Example 29, 4-Carbamoyl-4-(1-piperidyl)piperidinomethylene bisphosphonic acid ethyl ester]
[1]
  Serum calcium value, 0 day value (a): 66.7 ± 5.91 µg/mL
  Serum calcium value, 1 day value (b): 74.8 ± 1.82 µg/mL
  Serum increased calcium value [(b)-(a)]: 8.1 ± 4.35 µg/mL

## CCOP(=O)(OCC)C(N1CCC(F)(F)CC1)P(=O)(OCC)OCC [Example 31, 4,4-Difluoropiperidinomethylene bisphosphonic acid ethyl ester]
[1]
  Serum calcium value, 0 day value (a): 65.3 ± 3.15 µg/mL
  Serum calcium value, 1 day value (b): 73.1 ± 3.96 µg/mL
  Serum increased calcium value [(b)-(a)]: 7.8 ± 3.57 µg/mL

## CC1(Cl)CCN(C(P(=O)(O)O)P(=O)(O)O)CC1 [Example 33, 4-Chloro-4-methylpiperidinomethylene bisphosphonic acid]
[1]
  Serum calcium value, 0 day value (a): 52.1 ± 1.73 µg/mL
  Serum calcium value, 1 day value (b): 53.3 ± 4.91 µg/mL
  Serum increased calcium value [(b)-(a)]: 1.2 ± 3.77 µg/mL
[2]
  LD50: ≥ 100 mg/kg

## CC1(O)CCN(C(P(=O)(O)O)P(=O)(O)O)CC1 [Example 34, 4-Hydroxy-4-methylpiperidinomethylene bisphosphonic acid]
[1]
  Serum calcium value, 0 day value (a): 61.0 ± 2.82 µg/mL
  Serum calcium value, 1 day value (b): 68.3 ± 2.87 µg/mL
  Serum increased calcium value [(b)-(a)]: 7.4 ± 2.69 µg/mL
[2]
  LD50: ≥ 100 mg/kg

## CCCCCCC1(O)CCN(C(P(=O)(O)O)P(=O)(O)O)CC1 [Example 35, 4-Hexyl-4-hydroxypiperidinomethylene bisphosphonic acid]
[1]
  Serum calcium value, 0 day value (a): 70.8 ± 3.85 µg/mL
  Serum calcium value, 1 day value (b): 84.5 ± 6.73 µg/mL
  Serum increased calcium value [(b)-(a)]: 13.7 ± 4.13 µg/mL

## CCOP(=O)(OCC)C(N1CCC(C)(F)CC1)P(=O)(OCC)OCC [Example 37, 4-Fluoro-4-methylpiperidinomethylene bisphosphonic acid ethyl ester]
[1]
  Serum calcium value, 0 day value (a): 53.8 ± 2.10 µg/mL
  Serum calcium value, 1 day value (b): 55.7 ± 3.63 µg/mL
  Serum increased calcium value [(b)-(a)]: 1.9 ± 3.10 µg/mL

## CC(C)(C)C1(O)CCN(C(P(=O)(O)O)P(=O)(O)O)CC1 [Example 54, 4-t-Butyl-4-hydroxypiperidinomethylene bisphosphonic acid]
[1]
  Serum calcium value, 0 day value (a): 67.3 ± 2.83 µg/mL
  Serum calcium value, 1 day value (b): 77.0 ± 3.74 µg/mL
  Serum increased calcium value [(b)-(a)]: 9.7 ± 5.32 µg/mL

## CC1(C)CCCN(C(P(=O)(O)O)P(=O)(O)O)C1 [Example 58, 3,3-dimethylpiperidinomethylene bisphosphonic acid]
[1]
  Serum calcium value, 0 day value (a): 50.8 ± 2.35 µg/mL
  Serum calcium value, 1 day value (b): 130.4 ± 7.57 µg/mL
  Serum increased calcium value [(b)-(a)]: 79.6 ± 7.07 µg/mL
[2]
  LD50: ≥ 100 mg/kg

## CC1(C)CCN(C(P(=O)(O)O)P(=O)(O)O)CC1 [Example 60, 4,4-dimethylpiperidinomethylene bisphosphonic acid]
[1]
  Serum calcium value, 0 day value (a): 46.5 ± 8.69 µg/mL
  Serum calcium value, 1 day value (b): 110.4 ± 1.59 µg/mL
  Serum increased calcium value [(b)-(a)]: 63.9 ± 2.15 µg/mL
